Test results taken from patent publication US8241607B2, “Use of fructose-based compounds for the diagnosis of cancer” (priority 2005, dated 2012).

How the values were obtained:
GLUT-5 mRNA = assay: Real-time RT-PCR of GLUT-5 mRNA in PANC-1 cells; assay type: cell-based; conditions: 5.5 mM fructose, 24 h
Procedure: FIG. 22 depicts […] mRNA levels in pancreatic cancer cells in accordance with an embodiment of the present invention. Quantitative real-time RT-PCR was used to measure GLUT-5 mRNA levels in pancreatic cancer cells (PANC-1), following culture in 2 mM glucose, 5.5 mM glucose, or 5.5 mM fructose for 4 h and 24 h.
Brit J Biomed Sci 56(4): 285-292, 1999; Rogers S, Docherty S E, Slavin J L, Henderson and Best J D. Differential expression of GLUT12 in breast cancer and normal breast tissue. Cancer Letters 193(2): 225-233, 2003). […] Real-time RT-PCR was used to measure GLUT-5 mRNA expression following 2 mM, and 5.5 mM glucose-, and 5.5 mM fructose-treatment for 4 h, and 24 h respectively. GLUT-5 mRNA was expressed as the fold-change relative to GLUT-5 mRNA levels in 2 mM glucose-treated cells. As depicted in FIG. 22, at 4 h, GLUT-5 mRNA levels were low in both the 5.5 mM glucose-, and fructose-treated PANC-1 cells. […] This agrees with other studies which have reported fructose-induced GLUT-5 mRNA expression in colon cancer (74).

[1] = Serum fructose in normal volunteers after two cans of soda (fructose dehydrogenase assay); assay type: in vivo, human; conditions: 3 normal volunteers
Procedure: FIG. 37 depicts fasting serum fructose and glucose levels in patients with pancreatic cancer and in normal volunteers in accordance with an embodiment of the present invention. (a) Fasting serum fructose and glucose levels in 6 patients with pancreatic cancer on the morning of resection. (b) Serum fructose, and glucose levels (Mean±SEM) in 3 normal volunteers after a 10 h fast, followed by ingestion of two cans of soda, containing 76 g of carbohydrate in the form of high fructose corn syrup (55% fructose, 45% glucose).
The normal circulating concentrations of fructose are unknown. […] Briefly, aliquots (20 μl) of fructose standards (0.1, 0.5, 1, 2, 4, 6, and 8 mM) or unknown serum samples were mixed with 5 μl of a stock solution (125 U/ml) of the enzyme fructose dehydrogenase (Sigma) in 175 μl citric acid (0.05 M) phosphate (0.09 M) buffer (pH 4.5), and 20 μl of 3-(4,5-dimethylthiazol-2yl)-2,5-diphenyltetrazolium bromide (MTT), and phenazine methosulfate (Promega), incubated for 30 minutes, after which absorbance at 570 nm was recorded in a 96-well spectrophotometer. […] As the first analysis, in accordance with institutional review board guidelines, the inventors obtained 32 serum samples randomly selected from anonymous inpatients at Cedars-Sinai Medical Center. The inventors also measured glucose in these same samples using standard glucose oxidase based methods. […]

MCF-7 cells = assay: Breast cancer cell proliferation in fructose versus glucose (MTT assay); assay type: cell-based; conditions: 5 mM fructose compared to 5 mM glucose, 8-72 h
Procedure: (§1) Estrogen receptor (ER) positive MCF-7, and ER negative MDA-MB231 cells were plated in 5 mM fructose or glucose for times between 8-72 h, and proliferative rates measured using MTT assay. *, p<0.05; **, p<0.01.
(§2) FIG. 5 depicts fructose-mediated increased breast cancer proliferation in accordance with an embodiment of the present invention. ER positive MCF-7, and ER negative MDA-MB231 cells were plated in a range of fructose or glucose concentrations (5-25 mM) for 72 h, after which proliferative rates were measured using an MTT assay. *, p<0.05 for concentrations between 5-25 mM fructose versus glucose.
(§3) Standard media for breast cancer cell culture contain either 5-7 mM (low) and 12-25 mM (high) glucose concentrations. Estrogen receptor (ER) positive MCF-7, and ER negative MDA-MB231 cells were cultured overnight in 2 mM glucose standard DMEM medium containing 10% fetal bovine serum prior to incubation for periods between 8, and 72 hours in standard DMEM medium containing 10% fetal bovine serum, and 5 mM glucose or 5 mM fructose.
(§4) Proliferative rates were then measured in replicate (minimum of 6) aliquot wells of the breast cancer cells grown in glucose, or fructose containing medium. […] In separate experiments, proliferative rates of the MCF-7, and MDA-MB231 breast cancer cells were compared following culture in a range of fructose, and glucose concentrations (2-25 mM) for 72 hours.

MDA-MB231 cells = assay: as above; assay type: cell-based; conditions: 5 mM fructose compared to 5 mM glucose, 8-72 h
Procedure: as §1, §2, §3, §4

[2] = tested on: primary pancreatic cancers; assay: BRDU uptake in primary cultures of surgically resected pancreatic cancers; assay type: cell-based, human; conditions: all 5 primary pancreatic cancers; 5.5 mM fructose compared to 5.5 mM glucose, 72 h
Procedure: FIG. 18 depicts BRDU incorporation by pancreatic cells in accordance with an embodiment of the present invention. Freshly resected pancreatic cancers were mechanically and enzymatically dispersed, and cells were pre-incubated in 2 mM glucose prior to treatment with 5.5 mM glucose or fructose for 72 h. BRDU (10 μM) was added to the medium at 48 h, and BRDU-uptake quantified at 72 h.
As immortalized cell-lines, such as PANC-1 pancreatic cancer cells, can become dedifferentiated after repeated passages, and in order to translate these findings in the PANC-1 cells to patients with pancreatic cancer, the inventors also examined proliferative rates in primary cultures of fresh surgically resected pancreatic cancers, following incubation in 2 mM, and 5.5 mM glucose or 5.5 mM fructose. Briefly, after mechanical and enzymatic (trypsin and DNAse) disaggregation, aliquots of tumor cells were seeded in 6-well plates, and incubated in standard DMEM media with 10% fetal bovine serum, and 2 mM glucose, 5.5 mM glucose, or 5.5 mM fructose for 72 h. As before in the PANC-1 experiments, BRDU (10 μM) was added in the […] of incubation in the sugars, following which BRDU-uptake was quantified.

O=C(CO)[C@@H](O)[C@H](O)[C@H](O)CO [fructose]
GLUT-5 mRNA levels relative to 2 mM glucose-treated cells (GLUT-5 mRNA): 1.5 fold higher | GLUT-5 mRNA levels relative to 5.5 mM glucose-treated cells (GLUT-5 mRNA): 1.75 fold higher | mean serum fructose levels, peak ([1]; 30 minutes after two sodas): 17 mM | serum fructose levels ([1]; for the 2 hour duration of blood sampling): greater than 5 mM | proliferative rates (MCF-7 cells): higher proliferative rates | proliferative rates (MDA-MB231 cells): higher proliferative rates | proliferative rates (BRDU-uptake) [2]: higher proliferative rates
